Data as given in ChEMBL document CHEMBL4507257, “Data for DCP probe ABT-100” (2021).

What was measured:
[1] = target: Serine/threonine-protein kinase PLK3 (Homo sapiens) (UniProt Q9H4B4); details: Compound concentration 1000.0 nM
[2] = target: 5-hydroxytryptamine receptor 7 (Homo sapiens) (UniProt P34969); details: Compound concentration 10.0 uM
[3] = target: 5-hydroxytryptamine receptor 1D (Homo sapiens) (UniProt P28221); details: Compound concentration 10.0 uM
[4] = test system: Tyrosine-protein kinase ABL1 (Homo sapiens), P00519 [T315I]; details: Compound concentration 1000.0 nM
[5] = target: Dual specificity protein kinase CLK4 (Homo sapiens) (UniProt Q9HAZ1); details: Compound concentration 1000.0 nM
[6] = target: Rhodopsin kinase GRK1 (Homo sapiens) (UniProt Q15835); details: Compound concentration 1000.0 nM
[7] = target: Serine/threonine-protein kinase 38 (Homo sapiens) (UniProt Q15208); details: Compound concentration 1000.0 nM
[8] = target: Serine/threonine-protein kinase SIK1 (Homo sapiens) (UniProt P57059); details: Compound concentration 1000.0 nM
[9] = target: Activated CDC42 kinase 1 (Homo sapiens) (UniProt Q07912); details: Compound concentration 1000.0 nM
[10] = target: Aurora kinase C (Homo sapiens) (UniProt Q9UQB9); details: Compound concentration 1000.0 nM
[11] = target: Mitogen-activated protein kinase kinase kinase 19 (Homo sapiens) (UniProt Q56UN5); details: Compound concentration 1000.0 nM
[12] = target: Dual specificity mitogen-activated protein kinase kinase 2 (Homo sapiens) (UniProt P36507); details: Compound concentration 1000.0 nM
Dual specificity mitogen-activated protein kinase kinase 2 (Homo sapiens), sequence (P36507 whole entry): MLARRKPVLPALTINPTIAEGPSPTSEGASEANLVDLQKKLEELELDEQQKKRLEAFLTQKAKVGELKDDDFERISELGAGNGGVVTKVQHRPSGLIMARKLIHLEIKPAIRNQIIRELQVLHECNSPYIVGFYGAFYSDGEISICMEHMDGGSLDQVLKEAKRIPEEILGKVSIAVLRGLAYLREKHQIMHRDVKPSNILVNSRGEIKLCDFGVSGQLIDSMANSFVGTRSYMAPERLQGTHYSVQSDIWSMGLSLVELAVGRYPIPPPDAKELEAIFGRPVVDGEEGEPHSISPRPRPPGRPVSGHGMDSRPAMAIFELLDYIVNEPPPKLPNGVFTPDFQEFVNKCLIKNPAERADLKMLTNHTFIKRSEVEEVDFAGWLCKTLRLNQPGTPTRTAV

[13] = target: Serine/threonine-protein kinase Chk1 (Homo sapiens) (UniProt O14757); details: Compound concentration 1000.0 nM
Serine/threonine-protein kinase Chk1 (Homo sapiens), sequence (O14757 whole entry): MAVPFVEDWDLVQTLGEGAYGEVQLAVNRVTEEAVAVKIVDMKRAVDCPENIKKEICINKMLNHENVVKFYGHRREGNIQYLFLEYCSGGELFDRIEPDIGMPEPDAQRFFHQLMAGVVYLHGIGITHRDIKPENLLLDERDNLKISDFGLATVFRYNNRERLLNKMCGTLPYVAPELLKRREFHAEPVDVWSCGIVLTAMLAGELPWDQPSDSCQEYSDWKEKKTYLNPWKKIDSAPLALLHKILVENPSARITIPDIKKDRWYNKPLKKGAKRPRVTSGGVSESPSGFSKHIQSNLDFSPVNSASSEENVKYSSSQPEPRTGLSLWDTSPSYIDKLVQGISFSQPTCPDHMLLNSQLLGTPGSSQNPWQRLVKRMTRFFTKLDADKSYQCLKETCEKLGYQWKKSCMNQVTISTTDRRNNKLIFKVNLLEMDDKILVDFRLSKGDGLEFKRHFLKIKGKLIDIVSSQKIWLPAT

[14] = target: Serine/threonine-protein kinase SIK2 (Homo sapiens) (UniProt Q9H0K1); details: Compound concentration 1000.0 nM
[15] = target: Serine/threonine-protein kinase TAO2 (Homo sapiens) (UniProt Q9UL54); details: Compound concentration 1000.0 nM
[16] = test system: Tyrosine-protein kinase ABL1 (Homo sapiens), P00519 [E255K]; details: Compound concentration 1000.0 nM
[17] = target: Serine/threonine-protein kinase Sgk2 (Homo sapiens) (UniProt Q9HBY8); details: Compound concentration 1000.0 nM
[18] = target: MAP kinase-activated protein kinase 2 (Homo sapiens) (UniProt P49137); details: Compound concentration 1000.0 nM
[19] = target: Serine/threonine-protein kinase PAK 4 (Homo sapiens) (UniProt O96013); details: Compound concentration 1000.0 nM
[20] = target: Tyrosine-protein kinase Fgr (Homo sapiens) (UniProt P09769); details: Compound concentration 1000.0 nM
Tyrosine-protein kinase Fgr (Homo sapiens), sequence (P09769 2-529 limits assumed): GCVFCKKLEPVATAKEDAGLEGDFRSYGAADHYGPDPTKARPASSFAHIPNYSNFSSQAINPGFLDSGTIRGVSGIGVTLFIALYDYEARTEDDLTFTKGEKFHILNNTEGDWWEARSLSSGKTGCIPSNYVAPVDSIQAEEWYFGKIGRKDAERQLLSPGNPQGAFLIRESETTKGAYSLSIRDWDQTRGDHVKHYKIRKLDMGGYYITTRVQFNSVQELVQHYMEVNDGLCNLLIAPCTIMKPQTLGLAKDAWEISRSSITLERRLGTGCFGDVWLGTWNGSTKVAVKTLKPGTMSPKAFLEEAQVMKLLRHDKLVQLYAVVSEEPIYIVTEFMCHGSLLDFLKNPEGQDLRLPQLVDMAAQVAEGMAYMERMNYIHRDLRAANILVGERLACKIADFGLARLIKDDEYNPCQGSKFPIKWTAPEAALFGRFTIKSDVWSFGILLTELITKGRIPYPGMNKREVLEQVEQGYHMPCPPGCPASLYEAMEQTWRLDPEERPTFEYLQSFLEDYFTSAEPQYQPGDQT

[21] = target: Cyclin-dependent kinase-like 5 (Homo sapiens) (UniProt O76039); details: Compound concentration 1000.0 nM
[22] = target: Fibroblast growth factor receptor 3 (Homo sapiens) (UniProt P22607); details: Compound concentration 1000.0 nM
[23] = target: Tyrosine-protein kinase ITK/TSK (Homo sapiens) (UniProt Q08881); details: Compound concentration 1000.0 nM
[24] = target: Serine/threonine-protein kinase pim-2 (Homo sapiens) (UniProt Q9P1W9); details: Compound concentration 1000.0 nM
[25] = target: Serine/threonine-protein kinase BRSK2 (Homo sapiens) (UniProt Q8IWQ3); details: Compound concentration 1000.0 nM
[26] = target: Muscle, skeletal receptor tyrosine-protein kinase (Homo sapiens) (UniProt O15146); details: Compound concentration 1000.0 nM
[27] = target: Serine/threonine-protein kinase PknB (Mycobacterium tuberculosis) (UniProt P9WI81); details: Compound concentration 1000.0 nM
[28] = target: STE20-like serine/threonine-protein kinase (Homo sapiens) (UniProt Q9H2G2); details: Compound concentration 1000.0 nM
STE20-like serine/threonine-protein kinase (Homo sapiens), sequence (Q9H2G2 whole entry, looked up): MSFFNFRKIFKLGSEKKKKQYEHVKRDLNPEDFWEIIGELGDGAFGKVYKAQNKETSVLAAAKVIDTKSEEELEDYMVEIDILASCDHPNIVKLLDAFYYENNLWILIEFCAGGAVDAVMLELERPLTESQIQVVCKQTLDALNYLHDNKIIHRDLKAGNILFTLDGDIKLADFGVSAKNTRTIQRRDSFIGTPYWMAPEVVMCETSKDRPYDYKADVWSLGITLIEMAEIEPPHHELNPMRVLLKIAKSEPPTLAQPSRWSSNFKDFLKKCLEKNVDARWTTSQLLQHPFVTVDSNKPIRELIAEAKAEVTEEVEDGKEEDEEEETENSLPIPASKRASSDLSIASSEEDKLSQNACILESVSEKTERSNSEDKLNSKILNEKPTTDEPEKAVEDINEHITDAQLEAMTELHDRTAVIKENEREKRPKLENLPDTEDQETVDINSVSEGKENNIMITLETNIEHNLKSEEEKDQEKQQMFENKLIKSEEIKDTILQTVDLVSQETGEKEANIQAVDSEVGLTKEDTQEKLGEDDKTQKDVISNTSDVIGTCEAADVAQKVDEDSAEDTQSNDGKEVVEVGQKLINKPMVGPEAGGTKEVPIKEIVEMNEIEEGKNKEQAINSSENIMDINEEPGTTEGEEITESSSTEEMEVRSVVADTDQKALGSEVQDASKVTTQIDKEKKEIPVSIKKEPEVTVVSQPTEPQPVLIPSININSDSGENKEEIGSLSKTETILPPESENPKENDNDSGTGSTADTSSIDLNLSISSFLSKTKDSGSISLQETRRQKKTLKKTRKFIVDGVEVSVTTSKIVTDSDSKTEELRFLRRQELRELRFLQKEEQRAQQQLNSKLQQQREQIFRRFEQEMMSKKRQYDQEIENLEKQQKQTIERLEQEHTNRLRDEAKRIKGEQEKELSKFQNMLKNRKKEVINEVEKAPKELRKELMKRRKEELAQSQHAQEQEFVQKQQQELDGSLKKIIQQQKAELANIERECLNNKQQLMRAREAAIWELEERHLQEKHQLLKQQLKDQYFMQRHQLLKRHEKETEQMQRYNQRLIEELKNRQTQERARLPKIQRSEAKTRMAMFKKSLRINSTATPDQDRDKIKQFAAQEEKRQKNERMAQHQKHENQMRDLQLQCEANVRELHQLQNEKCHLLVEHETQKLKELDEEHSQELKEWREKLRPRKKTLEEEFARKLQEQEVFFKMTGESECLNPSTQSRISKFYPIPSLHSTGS

[29] = target: Myosin-IIIa (Homo sapiens) (UniProt Q8NEV4); details: Compound concentration 1000.0 nM
[30] = test system: Leucine-rich repeat serine/threonine-protein kinase 2 (Homo sapiens), Q5S007 [G2019S]; details: Compound concentration 1000.0 nM
[31] = target: Tyrosine-protein kinase JAK3 (Homo sapiens) (UniProt P52333); details: Compound concentration 1000.0 nM
[32] = test system: Phosphatidylinositol 4,5-bisphosphate 3-kinase catalytic subunit alpha isoform (Homo sapiens), P42336 [Q546K]; details: Compound concentration 1000.0 nM
[33] = test system: Proto-oncogene tyrosine-protein kinase receptor Ret (Homo sapiens), P07949 [V804M]; details: Compound concentration 1000.0 nM
[34] = target: Dual specificity tyrosine-phosphorylation-regulated kinase 1B (Homo sapiens) (UniProt Q9Y463); details: Compound concentration 1000.0 nM
[35] = target: Serine/threonine-protein kinase ULK1 (Homo sapiens) (UniProt O75385); details: Compound concentration 1000.0 nM
[36] = target: Serine/threonine-protein kinase D1 (Homo sapiens) (UniProt Q15139); details: Compound concentration 1000.0 nM
[37] = target: Serine/threonine-protein kinase WNK3 (Homo sapiens) (UniProt Q9BYP7); details: Compound concentration 1000.0 nM
[38] = target: Serine/threonine-protein kinase BRSK1 (Homo sapiens) (UniProt Q8TDC3); details: Compound concentration 1000.0 nM
[39] = target: Platelet-derived growth factor receptor beta (Homo sapiens) (UniProt P09619); details: Compound concentration 1000.0 nM
[40] = target: Serine/threonine-protein kinase MRCK gamma (Homo sapiens) (UniProt Q6DT37); details: Compound concentration 1000.0 nM
[41] = target: Ephrin type-A receptor 8 (Homo sapiens) (UniProt P29322); details: Compound concentration 1000.0 nM
Ephrin type-A receptor 8 (Homo sapiens), sequence (P29322 whole entry): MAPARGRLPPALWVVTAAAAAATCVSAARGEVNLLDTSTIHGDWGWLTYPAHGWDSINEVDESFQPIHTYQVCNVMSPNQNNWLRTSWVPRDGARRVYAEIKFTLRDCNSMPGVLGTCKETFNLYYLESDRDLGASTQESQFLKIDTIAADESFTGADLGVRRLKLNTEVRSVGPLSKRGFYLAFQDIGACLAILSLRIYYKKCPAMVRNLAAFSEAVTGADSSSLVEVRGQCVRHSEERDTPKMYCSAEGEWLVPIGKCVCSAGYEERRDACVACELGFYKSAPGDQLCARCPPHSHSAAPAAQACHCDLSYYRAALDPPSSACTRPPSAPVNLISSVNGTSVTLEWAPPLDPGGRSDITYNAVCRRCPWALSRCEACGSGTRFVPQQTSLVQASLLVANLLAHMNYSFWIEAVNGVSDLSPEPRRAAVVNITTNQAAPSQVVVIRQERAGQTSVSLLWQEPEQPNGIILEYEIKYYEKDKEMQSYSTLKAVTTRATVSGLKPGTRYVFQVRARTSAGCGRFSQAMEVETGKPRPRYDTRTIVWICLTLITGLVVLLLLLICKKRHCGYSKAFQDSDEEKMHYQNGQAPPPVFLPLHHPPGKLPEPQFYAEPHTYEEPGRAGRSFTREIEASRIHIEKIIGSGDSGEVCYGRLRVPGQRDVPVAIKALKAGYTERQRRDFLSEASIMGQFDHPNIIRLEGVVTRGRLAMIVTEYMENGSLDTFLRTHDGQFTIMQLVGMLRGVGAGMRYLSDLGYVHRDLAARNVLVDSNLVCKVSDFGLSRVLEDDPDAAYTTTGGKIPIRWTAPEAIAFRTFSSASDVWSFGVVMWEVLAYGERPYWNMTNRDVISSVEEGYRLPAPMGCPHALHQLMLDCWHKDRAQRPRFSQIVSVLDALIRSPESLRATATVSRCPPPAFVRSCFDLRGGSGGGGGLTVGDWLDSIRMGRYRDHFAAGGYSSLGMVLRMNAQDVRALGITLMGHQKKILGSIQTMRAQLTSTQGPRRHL

[42] = target: Histamine H2 receptor (Homo sapiens) (UniProt P25021); details: Compound concentration 10.0 uM
[43] = test system: Epidermal growth factor receptor (Homo sapiens), P00533 [UNDEFINED MUTATION]; details: Compound concentration 1000.0 nM
[44] = target: Serine/threonine-protein kinase Nek6 (Homo sapiens) (UniProt Q9HC98); details: Compound concentration 1000.0 nM
[45] = target: Serine/threonine-protein kinase tousled-like 1 (Homo sapiens) (UniProt Q9UKI8); details: Compound concentration 1000.0 nM
Serine/threonine-protein kinase tousled-like 1 (Homo sapiens), sequence (Q9UKI8 whole entry): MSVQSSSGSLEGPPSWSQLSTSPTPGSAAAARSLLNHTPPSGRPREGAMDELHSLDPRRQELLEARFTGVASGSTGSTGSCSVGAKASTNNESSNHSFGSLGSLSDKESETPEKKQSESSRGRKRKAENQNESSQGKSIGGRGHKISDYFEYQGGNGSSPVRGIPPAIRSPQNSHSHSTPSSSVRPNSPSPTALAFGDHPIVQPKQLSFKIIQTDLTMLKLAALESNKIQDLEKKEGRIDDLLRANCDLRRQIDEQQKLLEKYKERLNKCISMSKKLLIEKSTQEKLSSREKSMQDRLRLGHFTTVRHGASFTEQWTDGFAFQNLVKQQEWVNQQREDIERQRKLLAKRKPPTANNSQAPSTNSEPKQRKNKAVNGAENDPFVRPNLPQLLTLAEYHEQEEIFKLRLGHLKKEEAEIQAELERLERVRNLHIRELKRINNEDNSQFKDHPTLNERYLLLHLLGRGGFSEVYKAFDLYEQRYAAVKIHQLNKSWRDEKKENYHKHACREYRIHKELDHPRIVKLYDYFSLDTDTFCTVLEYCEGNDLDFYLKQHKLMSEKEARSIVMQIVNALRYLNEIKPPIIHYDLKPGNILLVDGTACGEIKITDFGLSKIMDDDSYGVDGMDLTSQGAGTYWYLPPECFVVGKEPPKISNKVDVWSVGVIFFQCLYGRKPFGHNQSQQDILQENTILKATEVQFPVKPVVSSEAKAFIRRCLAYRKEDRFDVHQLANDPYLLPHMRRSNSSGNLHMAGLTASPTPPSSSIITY

Serine/threonine-protein kinase PLK3 (Homo sapiens), sequence (Q9H4B4 whole entry, looked up): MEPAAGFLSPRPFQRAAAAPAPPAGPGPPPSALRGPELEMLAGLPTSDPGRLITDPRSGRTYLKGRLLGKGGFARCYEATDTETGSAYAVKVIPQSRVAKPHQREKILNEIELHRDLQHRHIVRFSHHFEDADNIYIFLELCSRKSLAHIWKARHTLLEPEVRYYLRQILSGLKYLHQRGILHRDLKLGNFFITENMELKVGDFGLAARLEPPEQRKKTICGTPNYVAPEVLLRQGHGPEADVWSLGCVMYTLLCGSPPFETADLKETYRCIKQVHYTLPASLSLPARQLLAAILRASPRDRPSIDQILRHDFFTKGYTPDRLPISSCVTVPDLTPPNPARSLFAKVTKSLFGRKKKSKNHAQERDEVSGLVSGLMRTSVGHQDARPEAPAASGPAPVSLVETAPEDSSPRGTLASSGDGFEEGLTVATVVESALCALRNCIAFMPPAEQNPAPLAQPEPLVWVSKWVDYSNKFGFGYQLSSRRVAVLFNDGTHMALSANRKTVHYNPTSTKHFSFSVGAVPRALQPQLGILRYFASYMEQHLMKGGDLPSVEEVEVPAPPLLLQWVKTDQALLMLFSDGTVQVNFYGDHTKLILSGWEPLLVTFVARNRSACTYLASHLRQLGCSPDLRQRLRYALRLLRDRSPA

Question: `Cn1cncc1[C@@](O)(COc1ccc(C#N)cc1-c1ccc(OC(F)(F)F)cc1)c1ccc(C#N)cc1` [A-108] was tested. Which residual activity [1] did it give?
Answer: 88%

Question: And the inhibition [2]?
Answer: 15%

Question: And the inhibition [3]?
Answer: 6.65%

Question: And the residual activity [4]?
Answer: 100%

Question: What about the residual activity [5] of the same compound?
Answer: 96%

Question: And the residual activity [6]?
Answer: 100%

Question: What about the residual activity [7] of the same compound?
Answer: 100%

Question: And the residual activity [8]?
Answer: 100%

Question: And the residual activity [9]?
Answer: 100%

Question: What about the residual activity [10] of the same compound?
Answer: 90%

Question: And the residual activity [11]?
Answer: 100%

Question: What about the residual activity [12] of the same compound?
Answer: 74%

Question: What about the residual activity [13] of the same compound?
Answer: 100%

Question: And the residual activity [14]?
Answer: 100%

Question: And the residual activity [15]?
Answer: 98%

Question: What about the residual activity [16] of the same compound?
Answer: 72%

Question: What about the residual activity [17] of the same compound?
Answer: 100%

Question: What about the residual activity [18] of the same compound?
Answer: 61%

Question: What about the residual activity [19] of the same compound?
Answer: 100%

Question: What about the residual activity [20] of the same compound?
Answer: 100%

Question: What about the residual activity [21] of the same compound?
Answer: 93%

Question: And the residual activity [22]?
Answer: 100%

Question: What about the residual activity [23] of the same compound?
Answer: 100%

Question: What about the residual activity [24] of the same compound?
Answer: 100%

Question: What about the residual activity [25] of the same compound?
Answer: 100%

Question: And the residual activity [26]?
Answer: 100%

Question: What about the residual activity [27] of the same compound?
Answer: 78%

Question: What about the residual activity [28] of the same compound?
Answer: 100%

Question: What about the residual activity [29] of the same compound?
Answer: 98%

Question: And the residual activity [30]?
Answer: 91%

Question: And the residual activity [31]?
Answer: 100%

Question: What about the residual activity [32] of the same compound?
Answer: 85%

Question: And the residual activity [33]?
Answer: 98%

Question: What about the residual activity [34] of the same compound?
Answer: 38%

Question: And the residual activity [35]?
Answer: 95%

Question: And the residual activity [36]?
Answer: 98%

Question: And the residual activity [37]?
Answer: 100%

Question: And the residual activity [38]?
Answer: 86%

Question: What about the residual activity [39] of the same compound?
Answer: 97%

Question: And the residual activity [40]?
Answer: 96%

Question: What about the residual activity [41] of the same compound?
Answer: 100%

Question: What about the inhibition [42] of the same compound?
Answer: 5.38%

Question: What about the residual activity [43] of the same compound?
Answer: 64%

Question: And the residual activity [44]?
Answer: 95%

Question: And the residual activity [45]?
Answer: 100%

Question: Which results are given for `Cn1cncc1[C@](O)(COc1ccc(C#N)cc1-c1ccc(OC(F)(F)F)cc1)c1ccc(C#N)cc1` [ABT-100]?
Answer: residual activity [1]: 89%; inhibition [2]: 9.15%; inhibition [3]: -0.932%; residual activity [4]: 100%; residual activity [5]: 94%; residual activity [6]: 95%; residual activity [7]: 75%; residual activity [8]: 95%; residual activity [9]: 100%; residual activity [10]: 100%; residual activity [11]: 63%; residual activity [12]: 94%; residual activity [13]: 97%; residual activity [14]: 95%; residual activity [15]: 98%; residual activity [16]: 94%; residual activity [17]: 100%; residual activity [18]: 63%; residual activity [19]: 100%; residual activity [20]: 100%; residual activity [21]: 100%; residual activity [22]: 83%; residual activity [23]: 91%; residual activity [24]: 84%; residual activity [25]: 48%; residual activity [26]: 93%; residual activity [27]: 97%; residual activity [28]: 90%; residual activity [29]: 100%; residual activity [30]: 92%; residual activity [31]: 72%; residual activity [32]: 82%; residual activity [33]: 99%; residual activity [34]: 58%; residual activity [35]: 100%; residual activity [36]: 99%; residual activity [37]: 100%; residual activity [38]: 73%; residual activity [39]: 100%; residual activity [40]: 85%; residual activity [41]: 72%; inhibition [42]: 14.4%; residual activity [43]: 78%; residual activity [44]: 95%; residual activity [45]: 100%
